Assay results published in patent US10968462B2, “Plants having increased tolerance to herbicides” (BASF AGRO B.V., priority 2013, dated 2021).

Tested on: transgenic T2 soybean plants
Experiment: Soybean greenhouse spray test, T2 plants at V2-V3 stage, injury 0-9 point scale 1 or 2 weeks after treatment (Tables 7C-7E)
Format: in vivo, Glycine max
Settings: 2 week after treatment
Experimental: Soybean cv Jake was transformed as previously described by Siminszky et al., Phytochem Rev. 5:445-458 (2006). After regeneration, transformants were transplanted to soil in small pots, placed in growth chambers (16 hr day/8 hr night; 25° C. day/23° C. night; 65% relative humidity; 130-150 microE m-2 s-1) and subsequently tested for the presence of the T-DNA via Taqman analysis. After a few weeks, healthy, transgenic positive, single copy events were transplanted to larger pots and allowed to grow in the growth chamber. An optimal shoot for cutting was about 3-4 inches tall, with at least two nodes present. Each cutting was taken from the original transformant (mother plant) and dipped into rooting hormone powder (indole-3-butyric acid, IBA). The cutting was then placed in oasis wedges inside a bio-dome. The mother plant was taken to maturity in the greenhouse and harvested for seed. Wild type cuttings were also taken simultaneously to serve as negative controls. The cuttings were kept in the bio-dome for 5-7 days and then transplanted to 3 inch pots and then acclimated in the growth chamber for two more days. […] Other herbicides, such as AHAS (ALS—Acetolactate Synthase) inhibiting herbicides were also tested in a similar fashion for confirming cross resistance to other modes of action: Tritosulfuron, Florasulam, Metsulfuron, Rimsulfuron. Herbicide injury evaluations were taken at 2, 7, 14 and 21 days after treatment.
• 0 No Injury • 1 Minimal injury, only a few patches of leaf injury or chlorosis. • 2 Minimal injury with slightly stronger chlorosis. Overall growth points remain undamaged. • 3 Slightly stronger injury on secondary leaf tissue, but primary leaf and growth points are still undamaged. • 4 Overall plant morphology is slightly different, some chlorosis and necrosis in secondary growth points and leaf tissue. Stems are intact. Regrowth is highly probable within 1 week. • 5 Overall plant morphology is clearly different, some chlorosis and necrosis on a few leaves and growth points, but primary growth point is intact. Stem tissue is still green. Regrowth is highly probably within 1 week. • 6 Strong injury can be seen on the new leaflet growth. Plant has a high probability to survive only through regrowth at different growth points. Most of the leaves are chlorotic/necrotic but stem tissue is still green. May have regrowth but with noticeable injured appearance. • 7 Most of the active growth points are necrotic. There may be a single growth point that could survive and may be partially chlorotic or green and partially necrotic. Two leaves may still be chlorotic with some green; the rest of the plant including stem is necrotic. • 8 Plant will likely die, and all growth points are necrotic. One leaf may still be chlorotic with some green. The remainder of the plant is necrotic. • 9 Plant is dead. • * Not tested

SMILES: CCS(=O)(=O)c1cccnc1S(=O)(=O)NC(=O)Nc1nc(OC)cc(OC)n1 [Rimsulfuron]
- injury on a 0-9 point scale (Bradi_1g07930.1 (Event 1), 10 g ai/ha): 6.0
- injury on a 0-9 point scale (Bradi_1g07930.1 (Event 1), Rimsulfuron 1.25 g ai/ha): 6.0
- injury on a 0-9 point scale (Bradi_1g07930.1 (Event 1), Rimsulfuron 2.5 g ai/ha): 6.0
- injury on a 0-9 point scale (Bradi_1g07930.1 (Event 1), Rimsulfuron 5 g ai/ha): 6.0
- injury on a 0-9 point scale (R128A_F420V (Event 1), 10 g ai/ha): 7.5
- injury on a 0-9 point scale (R128A_F420V (Event 1), Rimsulfuron 1.25 g ai/ha): 6.5
- injury on a 0-9 point scale (R128A_F420V (Event 1), Rimsulfuron 5 g ai/ha): 7.0
- injury on a 0-9 point scale (R128A_F420V (Event 2), 10 g ai/ha): 7.0
- injury on a 0-9 point scale (R128A_F420V (Event 2), Rimsulfuron 1.25 g ai/ha): 6.0
- injury on a 0-9 point scale (R128A_F420V (Event 2), Rimsulfuron 2.5 g ai/ha): 7.0
- injury on a 0-9 point scale (R128A_F420V (Event 2), Rimsulfuron 5 g ai/ha): 7.0
- injury on a 0-9 point scale (R128A_F420V + Bradi_1g07930.1 (Event 1), 10 g ai/ha): 4.3
- injury on a 0-9 point scale (R128A_F420V + Bradi_1g07930.1 (Event 1), Rimsulfuron 1.25 g ai/ha): 4.0
- injury on a 0-9 point scale (R128A_F420V + Bradi_1g07930.1 (Event 1), Rimsulfuron 2.5 g ai/ha): 3.5
- injury on a 0-9 point scale (R128A_F420V + Bradi_1g07930.1 (Event 1), Rimsulfuron 5 g ai/ha): 3.3
- injury on a 0-9 point scale (R128A_F420V + Bradi_1g07930.1 (Event 2), 10 g ai/ha): 5.0
- injury on a 0-9 point scale (R128A_F420V + Bradi_1g07930.1 (Event 2), Rimsulfuron 1.25 g ai/ha): 3.0
- injury on a 0-9 point scale (R128A_F420V + Bradi_1g07930.1 (Event 2), Rimsulfuron 2.5 g ai/ha): 4.0
- injury on a 0-9 point scale (R128A_F420V + Bradi_1g07930.1 (Event 2), Rimsulfuron 5 g ai/ha): 4.5
- injury on a 0-9 point scale (wild type, 10 g ai/ha): 8.5
- injury on a 0-9 point scale (wild type, Rimsulfuron 1.25 g ai/ha): 8.0
- injury on a 0-9 point scale (wild type, Rimsulfuron 2.5 g ai/ha): 8.5
- injury on a 0-9 point scale (wild type, Rimsulfuron 5 g ai/ha): 8.3

SMILES: COc1nc(C)nc(=NC(=O)NS(=O)(=O)c2ccccc2C(=O)O)[nH]1 [Metsulfuron]
- injury on a 0-9 point scale (Bradi_1g07930.1 (Event 1), 1.05 g ai/ha): 1.0
- injury on a 0-9 point scale (Bradi_1g07930.1 (Event 1), 2.1 g ai/ha): 0.7
- injury on a 0-9 point scale (Bradi_1g07930.1 (Event 1), 4.2 g ai/ha): 2.3
- injury on a 0-9 point scale (Bradi_1g07930.1 (Event 1), 8.4 g ai/ha): 3.3
- injury on a 0-9 point scale (R128A_F420V (Event 1), 1.05 g ai/ha): 8.0
- injury on a 0-9 point scale (R128A_F420V (Event 1), 2.1 g ai/ha): 8.0
- injury on a 0-9 point scale (R128A_F420V (Event 1), 4.2 g ai/ha): 8.0
- injury on a 0-9 point scale (R128A_F420V (Event 1), 8.4 g ai/ha): 8.7
- injury on a 0-9 point scale (R128A_F420V (Event 2), 1.05 g ai/ha): 8.0
- injury on a 0-9 point scale (R128A_F420V (Event 2), 2.1 g ai/ha): 9.0
- injury on a 0-9 point scale (R128A_F420V (Event 2), 4.2 g ai/ha): 8.7
- injury on a 0-9 point scale (R128A_F420V (Event 2), 8.4 g ai/ha): 9.0
- injury on a 0-9 point scale (R128A_F420V + Bradi_1g07930.1 (Event 1), 1.05 g ai/ha): 2.7
- injury on a 0-9 point scale (R128A_F420V + Bradi_1g07930.1 (Event 1), 2.1 g ai/ha): 3.0
- injury on a 0-9 point scale (R128A_F420V + Bradi_1g07930.1 (Event 1), 4.2 g ai/ha): 4.0
- injury on a 0-9 point scale (R128A_F420V + Bradi_1g07930.1 (Event 1), 8.4 g ai/ha): 4.3
- injury on a 0-9 point scale (R128A_F420V + Bradi_1g07930.1 (Event 2), 1.05 g ai/ha): 3.0
- injury on a 0-9 point scale (R128A_F420V + Bradi_1g07930.1 (Event 2), 2.1 g ai/ha): 3.7
- injury on a 0-9 point scale (R128A_F420V + Bradi_1g07930.1 (Event 2), 4.2 g ai/ha): 3.0
- injury on a 0-9 point scale (R128A_F420V + Bradi_1g07930.1 (Event 2), 8.4 g ai/ha): 3.0
- injury on a 0-9 point scale (wild type, 1.05 g ai/ha): 8.5
- injury on a 0-9 point scale (wild type, 2.1 g ai/ha): 8.3
- injury on a 0-9 point scale (wild type, 4.2 g ai/ha): 8.8
- injury on a 0-9 point scale (wild type, 8.4 g ai/ha): 8.5
